For orientation: GI50 means the concentration that inhibits growth by half. High values mean lower sensitivity of the cells, low ones greater sensitivity of the cells. A word on the IC50: it is the concentration that inhibits the measured activity by half.

The subject of one assay is OVCAR3 cells. As to the kind of experiment: MTT proliferation assay, OVCAR3.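 Note: compound given as an 8- or 10-point series, one day after plating, with exposure covering roughly 3-4 cell doublings.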 The assay is classed as cell-based. The settings on record: 5 days compound exposure, 1:3 serial dilution starting at 10 μM. Background: Tetrazolium dyes change colour on reduction, which living cells bring about.
A further assay concerns the target T1, CyclinE1/CDK2 (Homo sapiens, UniProt P24864).
T1 construct: purchased Eurofins, discovery 14-475
Kind of assay: Fluorescence Polarization (FP) competitive binding assay, Cyclin E1/Cdk2.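 Note: readings taken after two-hour equilibration at room temperature in HEPES buffer with NaCl, DTT, NP-40 and BSA, IC50 fitted from eight-concentration serial dilution series.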 The settings on record: 10 nM Cyclin E1/Cdk2, 2 nM FAM probe; average of 2-3 independent experiments; read-out: Cyclin E FP IC50. Background: Fluorescence polarisation rises when a labelled molecule tumbles more slowly, as on binding a larger partner.

The next assay relates to NCI-H1048 cells. Kind of assay: MTT proliferation assay, NCI-H1048.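 Note: Dose-response in 96-well plates over 8 or 10 concentration points, with exposure spanning 3-4 cell doublings.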 Particulars: 5 days compound exposure, 1:3 serial dilution starting at 10 μM. The assay is classed as cell-based.
Another assay concerns the target T2, CyclinB1/CDK1 (Homo sapiens, UniProt P14635).
T2 construct: purchased Eurofins, discovery 14-450
As to the kind of experiment: Fluorescence Polarization (FP) competitive binding assay, Cyclin B1/Cdk1.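 Note: fluorescence polarization read after equilibration at room temperature, with IC50 taken from serially diluted dose-response curves.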 The settings on record: 10 nM Cyclin B1/Cdk1, 2 nM FAM probe; average of 2-3 independent experiments; read-out: Cyclin B FP IC50.

Molecules are shown by their SMILES. *1 amine or outer side, *2 acyl side, *3 side chain or, on linkers, in order; H or OH if unused. Where a SMILES comes first, the peptide text is derived from it. Bridges are numbered along the chain shown (N, C = ends). [ ]: non-standard residue; d: D form. The star is where a group is joined. X98 = CN1CC2(C1)OCc1cc(-c3ccc(Cl)cc3C[C@@H](C(=O)[*:2])N(C)[*:1])ccc12; X90 = CC(=O)N1CC=C(c2ccc(Cl)cc2C[C@@H](C(=O)[*:2])N(C)[*:1])CC1; NMehhhLys(Me) = CN([C@@H](CCCCCCCN(C)[*:3])C(=O)[*:2])[*:1]; X66 = CN([C@@H](Cc1cc(Cl)ccc1-c1cccnc1)C(=O)[*:2])[*:1]; NMe(hhhLys) = CN([C@@H](CCCCCCCN[*:3])C(=O)[*:2])[*:1]; cBuCO(3,3-F2-1-CF3) = O=C(C1(C(F)(F)F)CC(F)(F)C1)*; NMePhe(2,5-Cl2) = CN[C@@H](Cc1cc(Cl)ccc1Cl)C(=O)O; Pro(trans-4-F) = O=C(O)[C@@H]1C[C@@H](F)CN1; Gly(cPr) = N[C@H](C(=O)O)C1CC1

For `CC(C)C[C@@H]1NC(=O)[C@@H](N(C)C(=O)[C@@H](NC(=O)[C@@H]2C[C@@H](F)CN2C(=O)C2(C(F)(F)F)CC3(CCC3)C2)C2CC2)CC=CCCCCNC(=O)[C@H](Cc2cc(Cl)ccc2Cl)N(C)C1=O` (single isomer, unassigned) [Example 16-P1], the GI50 was found to be 880 nM with OVCAR3 cells and 340 nM in the assay on NCI-H1048 cells. The half-maximal inhibitory concentration (IC50) at CyclinE1/CDK2 is 3150 nM; on CyclinB1/CDK1, 20 nM.

For the molecule `CC(C)C[C@@H]1NC(=O)[C@@H](N(C)C(=O)[C@@H](NC(=O)[C@@H]2C[C@@H](F)CN2C(=O)C2(C(F)(F)F)CC3(CCC3)C2)C2CC2)CC=CCCCCNC(=O)[C@H](Cc2cc(Cl)ccc2Cl)N(C)C1=O` (single isomer, unassigned) [Example 16-P2], the GI50 was 990 nM in the assay with OVCAR3 cells and 350 nM with NCI-H1048 cells. Besides, the IC50 at CyclinE1/CDK2 is 2710 nM; at CyclinB1/CDK1, 20 nM.

As for `CC(C)C[C@@H]1NC(=O)[C@@H](N(C)C(=O)[C@@H](NC(=O)[C@@H]2C[C@@H](F)CN2C(=O)C2(C(F)(F)F)CC(F)(F)C2)C2CC2)CCCCCCCNC(=O)[C@H](Cc2cc(Cl)ccc2Cl)N(C)C1=O` [Example 7] ({cBuCO(3,3-F2-1-CF3)}-[Pro(trans-4-F)][Gly(cPr)][NMe(hhhLys)]L[NMePhe(2,5-Cl2)]; lactam 3-C), the GI50 in the assay on OVCAR3 cells was 50 nM; in the assay with NCI-H1048 cells, 20 nM. In addition, the figures for the IC50 at CyclinE1/CDK2 and at CyclinB1/CDK1 were 290 nM and 20 nM, respectively.

Take `CC(C)C[C@@H]1NC(=O)[C@@H](N(C)C(=O)[C@@H](NC(=O)[C@@H]2C[C@@H](F)CN2C(=O)C2(C(F)(F)F)CC(F)(F)C2)C2CC2)CC=CCCCCN(C)C(=O)[C@H](Cc2cc(Cl)ccc2Cl)N(C)C1=O` [Example 14]: the GI50 in the assay with OVCAR3 cells came to 200 nM; in the assay with NCI-H1048 cells, 100 nM. Also, the IC50 was 340 nM on CyclinE1/CDK2 and 20 nM at CyclinB1/CDK1.

For the molecule `CC(=O)N1CC=C(c2ccc(Cl)cc2C[C@H]2C(=O)N(C)CCCCCCC[C@H](N(C)C(=O)[C@@H](NC(=O)[C@@H]3C[C@@H](F)CN3C(=O)C3(C(F)(F)F)CC(F)(F)C3)C3CC3)C(=O)N[C@@H](CC(C)C)C(=O)N2C)CC1` [Example 50, (2S,4R)—N—((S)-2-(((3S,6S,9S)-3-(2-(1-acetyl-1,2,3,6-tetrahydropyridin-4-yl)-5-chlorobenzyl)-6-isobutyl-1,4-dimethyl-2,5,8-trioxo-1,4,7-triazacyclohexadecan-9-yl)(methyl)amino)-1-cyclopropyl-2-oxoethyl)-1-(3,3-difluoro-1-(trifluoromethyl)cyclobutane-1-carbonyl)-4-fluoropyrrolidine-2-carboxamide] ({cBuCO(3,3-F2-1-CF3)}-[Pro(trans-4-F)][Gly(cPr)][NMehhhLys(Me)]L[X90]; lactam 3-C), the concentration for 50% growth inhibition (GI50) in the assay with OVCAR3 cells and with NCI-H1048 cells was 10 nM throughout. For the same molecule, the results for the 50% inhibitory concentration (IC50) on CyclinE1/CDK2 and at CyclinB1/CDK1 were 1220 nM and 20 nM, respectively.

For the molecule `CC(C)C[C@@H]1NC(=O)[C@@H](N(C)C(=O)[C@@H](NC(=O)[C@@H]2C[C@@H](F)CN2C(=O)C2(C(F)(F)F)CC(F)(F)C2)C2CC2)CCCCCCCN(C)C(=O)[C@H](Cc2cc(Cl)ccc2-c2cccnc2)N(C)C1=O` [Example 196] ({cBuCO(3,3-F2-1-CF3)}-[Pro(trans-4-F)][Gly(cPr)][NMehhhLys(Me)]L[X66]; lactam 3-C), the 50% growth inhibitory concentration (GI50) in the assay with OVCAR3 cells and in the assay on NCI-H1048 cells was 10 nM throughout. Further, the IC50 worked out at 740 nM on CyclinE1/CDK2 and 20 nM at CyclinB1/CDK1.

As to `CC(C)C[C@@H]1NC(=O)[C@@H](N(C)C(=O)[C@@H](NC(=O)[C@@H]2C[C@@H](F)CN2C(=O)C2(C(F)(F)F)CC(F)(F)C2)C2CC2)CCCCCCCNC(=O)[C@H](Cc2cc(Cl)ccc2-c2ccc3c(c2)COC32CN(C)C2)N(C)C1=O` [Example 395] ({cBuCO(3,3-F2-1-CF3)}-[Pro(trans-4-F)][Gly(cPr)][NMe(hhhLys)]L[X98]; lactam 3-C), the GI50 in the assay on OVCAR3 cells was found to be 10 nM; with NCI-H1048 cells it was 20 nM.

The values above are taken from patent US20240408169A1 (priority 2023, published 2024).
